This note sets out measurements from ChEMBL document CHEMBL3108726, “Sorbicatechols A and B, antiviral sorbicillinoids from the marine-derived fungus Penicillium chrysogenum PJX-17” (J Nat Prod, 2014).

SMILES strings stand for the structures.

In the assay the test system is Influenza A virus. Put plainly: Antiviral activity against Influenza A virus (A/Puerto Rico/8/34(H1N1)) infected in MDCK cells assessed as inhibition of virus-induced cytopathic effect after 48 hrs by crystal violet staining technique. The format is functional, organism-based. Conditions: A/Puerto Rico/8/1934(H1N1). For orientation: Damage to the host cells serves as the signal in cytopathic effect assays.
As usually defined, the IC50 is the concentration that inhibits the measured activity by half. Take `C/C=C/C=C/C(O)=C1/C(=O)[C@]2(C)C(=O)[C@@](C)(O)[C@H]1C[C@@H]2c1ccc(O)c(OC)c1`: the IC50 worked out at 85 µM.
For the molecule `C/C=C/C=C/C(O)=C1/C(=O)[C@]2(C)C(=O)[C@@](C)(O)[C@H]1C[C@H]2c1ccc(O)c(OC)c1`, the IC50 is 113 µM.
Regarding `NC(=O)c1ncn([C@@H]2O[C@H](CO)[C@@H](O)[C@H]2O)n1` [RIBAVIRIN], the IC50 turned out to be 84 µM.
